Data from ChEMBL document CHEMBL5107958, “Phosphoramidate Prodrugs Continue to Deliver, The Journey of Remdesivir (GS-5734) from RSV to SARS-CoV-2” (ACS Med Chem Lett, 2022).
pEC50: −log10 of the molar value.

Columns and labels:
[1] = Clearance in ferret at 10 mg/kg, iv; assay type: ADME, organism-based, Mustela putorius furo; details: in vivo
[2] = test system: Middle East respiratory syndrome-related coronavirus; test: Antiviral activity against MERS-CoV infected in HAE cells assessed as reduction in viral replication at MOI of 0.5 incubated for 3 hrs followed by virus removal measured after 48 hrs by Hoechst 33258 staining based assay; assay type: functional, organism-based
[3] = Half life in ferret at 10 mg/kg, iv; assay type: ADME, organism-based, Mustela putorius furo; details: in vivo
[4] = Half life in human at 2.5 mg/kg, iv; assay type: ADME, organism-based; details: in vivo
[5] = Volume of distribution at steady state in human at 2.5 mg/kg, iv; assay type: ADME, organism-based; details: in vivo, read-out: Vdss
SARS-CoV-2 [6] = test: Potency index, ratio of EC50 of GS-441524 to EC50 of test compound for antiviral activity against SARS-CoV-2 infected in human Caco-2 cells assessed as reduction in viral replication at MOI of 0.01 measured after 72 hrs by qRT-PCR analysis; assay type: functional, Severe acute respiratory syndrome coronavirus 2
[7] = Prodrug conversion in Normal human bronchial epithelial cells assessed as half life of triphosphate metabolite; assay type: ADME, cell-based; details: normal human bronchial epithelial cell
Marburgvirus [8] = test: Potency index, ratio of EC50 of GS-441524 to EC50 of test compound for antiviral activity against MARV Rec. Bat371-GFP infected in human Huh-7 cells assessed as reduction in viral replication incubated for 48 to 144 hrs by fluorescence based assay; assay type: functional; details: time 48-144 hrs
SARS-CoV-2 [9] = test: Potency index, ratio of EC50 of GS-441524 to EC50 of test compound for antiviral activity against SARS-CoV-2 infected in African green monkey Vero E6 cells assessed as reduction in viral replication; assay type: functional, Severe acute respiratory syndrome coronavirus 2
Nipah virus [10] = test: Antiviral activity against Nipah B2004 infected in human NCI-H358 cells assessed as reduction in viral replication incubated for 48 to 144 hrs by reporter virus assay; assay type: functional, organism-based; details: Henipavirus nipahense
[11] = Volume of distribution at steady state in ferret at 10 mg/kg, iv; assay type: ADME, organism-based, Mustela putorius furo; details: in vivo, read-out: Vdss
[12] = AUC (0 to infinity) in human at 2.5 mg/kg, iv; assay type: ADME, organism-based; design: time infinity, dose 2.5 mg/kg, route iv; details: in vivo
SARS-CoV-2 [13] = test: Antiviral activity against SARS-CoV-2 infected in human Calu-3 cells assessed as reduction in viral replication at MOI of 0.01 measured after 72 hrs by qRT-PCR analysis; assay type: functional, organism-based; details: Severe acute respiratory syndrome coronavirus 2, Calu-3, 72 h
Nipah virus [14] = test: Antiviral activity against Nipah virus infected in African green monkey assessed as animal survival at 10 mg/kg, iv qd relative to control; assay type: functional; details: Henipavirus nipahense
SARS-CoV-2 [15] = test: Potency index, ratio of EC50 of GS-441524 to EC50 of test compound for antiviral activity against SARS-CoV-2 infected in human PSC-derived lung epithelial cells assessed as reduction in viral replication; assay type: functional, Severe acute respiratory syndrome coronavirus 2, PSC-derived lung epithelial cell
Nipah virus [16] = test: Potency index, ratio of EC50 of GS-441524 to EC50 of test compound for antiviral activity against Nipah B2004 infected in human NCI-H358 cells assessed as reduction in viral replication incubated for 48 to 144 hrs by reporter virus assay; assay type: functional, Henipavirus nipahense; details: time 48-144 hrs
Marburgvirus [17] = test: Antiviral activity against MARV Rec. Bat371-GFP infected in human Huh-7 cells assessed as reduction in viral replication incubated for 48 to 144 hrs by fluorescence based assay; assay type: functional, organism-based; details: Orthomarburgvirus
Measles morbillivirus [18] = test: Potency index, ratio of EC50 of GS-441524 to EC50 of test compound for antiviral activity against Measles virus infected in HMVEC cells assessed as reduction in viral replication; assay type: functional
[19] = Half life in Rhesus monkey at 10 mg/kg, iv; assay type: ADME, organism-based, Macaca mulatta; details: in vivo
Nipah virus [20] = test: Antiviral activity against Nipah M1999 infected in human HeLa cells assessed as reduction in viral replication incubated for 48 to 144 hrs by reporter virus assay; assay type: functional, organism-based; details: Henipavirus nipahense
Measles morbillivirus [21] = test: Antiviral activity against Measles virus infected in HMVEC cells assessed as reduction in viral replication; assay type: functional, organism-based
SARS-CoV-2 [22] = test: Antiviral activity against SARS-CoV-2 infected in human A549 cells expressing hACE2 assessed as reduction in viral replication at MOI of 0.025 incubated for 48 hrs by luciferase based assay; assay type: functional, organism-based; details: Severe acute respiratory syndrome coronavirus 2, A549, 48 h
[23] = Prodrug conversion in ferret assessed as AUC (0 to last) of parent nucleoside compound at 10 mg/kg, iv; assay type: ADME, organism-based, Mustela putorius furo; design: time 0 - last, dose 10 mg/kg, route iv; details: in vivo
SARS-CoV = test: Antiviral activity against SARS-CoV infected in HAE cells assessed as reduction in viral replication at MOI of 0.5 preincubated for 3 hrs followed by virus removal measured after 48 hrs by Hoechst 33258 staining based assay; assay type: functional, organism-based; details: Severe acute respiratory syndrome-related coronavirus
SARS-CoV-2 [24] = test: Antiviral activity against SARS-CoV-2 infected in human Calu-3 2B4 cells assessed as reduction in viral replication at MOI of 0.01 preincubated for 2 hrs followed by viral infection for 30 mins and subsequent virus removal and addition of medium containing compound measured after 72 hrs by RT-qPCR analysis; assay type: functional, organism-based; details: Severe acute respiratory syndrome coronavirus 2, Calu-3 2B4
[25] = test system: Middle East respiratory syndrome-related coronavirus; test: Potency index, ratio of EC50 of GS-441524 to EC50 of test compound for antiviral activity against MERS-CoV infected in HAE cells assessed as reduction in viral replication at MOI of 0.5 incubated for 3 hrs followed by virus removal measured after 48 hrs by Hoechst 33258 staining based assay; assay type: functional; details: time 51 hrs
SARS-CoV-2 [26] = test: Antiviral activity against SARS-CoV-2 infected in human PSC-derived lung epithelial cells assessed as reduction in viral replication; assay type: functional, organism-based; details: Severe acute respiratory syndrome coronavirus 2, Epithelial cell
[27] = AUC (0 to infinity) in ferret at 10 mg/kg, iv; assay type: ADME, organism-based, Mustela putorius furo; design: time infinity, dose 10 mg/kg, route iv; details: in vivo
Ebolavirus [28] = test: Potency index, ratio of EC50 of GS-441524 to EC50 of test compound for antiviral activity against Ebola infected in human macrophages assessed as reduction in viral replication; assay type: functional, Macrophage
SARS-CoV-2 [29] = test: Potency index, ratio of EC50 of GS-441524 to EC50 of test compound for antiviral activity against SARS-CoV-2 infected in human A549 cells expressing hACE2 assessed as reduction in viral replication at MOI of 0.025 incubated for 48 hrs by luciferase based assay; assay type: functional, Severe acute respiratory syndrome coronavirus 2
Ebolavirus [30] = test: Antiviral activity against Ebola infected in human HeLa cells assessed as reduction in viral replication; assay type: functional, organism-based; details: Orthoebolavirus
SARS-CoV-2 [31] = test: Potency index, ratio of EC50 of GS-441524 to EC50 of test compound for antiviral activity SARS-CoV-2 infected in human Calu-3 2B4 cells assessed as reduction in viral replication at MOI of 0.01 preincubated for 2 hrs followed by viral infection for 30 mins and subsequent virus removal and addition of medium containing compound measured after 72 hrs by RT-qPCR analysis; assay type: functional, Severe acute respiratory syndrome coronavirus 2; details: time 74.5 hrs
[32] = Stability of prodrug in mouse assessed as half life; assay type: ADME; details: in vivo
SARS-CoV-2 [33] = test: Antiviral activity against SARS-CoV-2 infected in African green monkey Vero E6 cells assessed as reduction in viral replication; assay type: functional, organism-based; details: Severe acute respiratory syndrome coronavirus 2, Vero C1008
SARS-CoV-2 [34] = test: Potency index, ratio of EC50 of GS-441524 to EC50 of test compound for antiviral activity against SARS-CoV-2 infected in human Calu-3 cells assessed as reduction in viral replication at MOI of 0.01 measured after 72 hrs by qRT-PCR analysis; assay type: functional, Severe acute respiratory syndrome coronavirus 2

Question: What does the source list for `CCC(CC)OC(=O)[C@H](C)N[P@](=O)(OC[C@H]1O[C@@](C#N)(c2ccc3c(N)ncnn23)[C@H](O)[C@@H]1O)Oc1ccccc1`?
Answer: clearance [1]: 43.3 mL/min/kg; pEC50 [2]: 7.13; half-life [3]: 11 min; half-life [4]: 60 min; Vd [5]: 1.22 L/kg; Ratio (SARS-CoV-2 [6]): 80; t1/2 [7]: 14 h; Ratio (Marburgvirus [8]): 136; Ratio (SARS-CoV-2 [9]): 0.7; pEC50 (Nipah virus [10]): 7.49; Vd [11]: 0.34 L/kg; AUC(0-inf) [12]: 5 µM·h; pEC50 (SARS-CoV-2 [13]): 6.96; survival at 10 mg/kg (Nipah virus [14]): 100%; Ratio (SARS-CoV-2 [15]): 5.3; Ratio (Nipah virus [16]): 77; pEC50 (Marburgvirus [17]): 7.85; Ratio (Measles morbillivirus [18]): 13; half-life [19]: 23 min; pEC50 (Nipah virus [20]): 7.18; pEC50 (Measles morbillivirus [21]): 7.22; pEC50 (SARS-CoV-2 [22]): 6.94; AUClast [23]: 18.2 µM·h; pEC50 (SARS-CoV): 7.16; pEC50 (SARS-CoV-2 [24]): 6.55; Ratio [25]: 12; pEC50 (SARS-CoV-2 [26]): 6.85; AUC(0-inf) [27]: 7 µM·h; Ratio (Ebolavirus [28]): >232; Ratio (SARS-CoV-2 [29]): 7.6; pEC50 (Ebolavirus [30]): 6.85; Ratio (SARS-CoV-2 [31]): 2.2; t1/2 [32]: 5 min; pEC50 (SARS-CoV-2 [33]): 6.13; Ratio (SARS-CoV-2 [34]): 2.4
